Measured values published in patent publication US20160300038A1, “METHODS OF N[…] DRUG CONCENTRATIONS IN URINE USING PATIENT […] DATA AND TESTING FOR POTENTIAL NON-[…] A CHRONIC DRUG TREATMENT REGIMEN” (Ameritox, Ltd., priority 2015, published 2016).

Test: Urine drug testing (UDT): drug concentration of the primary metabolite (parent drug) in patient urine, e.g. LC/MSMS
Method: Non-limiting examples for determining the amount of a drug in fluid of a subject include fluorescence polarization immunoassay (“FPIA,” Abbott Diagnostics), mass spectrometry (MS), gas chromatography-mass spectrometry (GC-MS-MS), liquid chromatography-mass spectrometry (LC-MS-MS), liquid chromatography—exact mass mass spectrometry (LC/QTOF) and the like. […] In one embodiment, a raw level, amount, or concentration of a drug in urine of a subject is measured and reported as a ratio, percent, or in relationship to the amount of fluid. The amount of fluid may be expressed as a unit volume, for example, in L, mL, μL, pL, ounce, etc. In one embodiment, the raw amount of a drug in Urine of a subject may be expressed as an absolute level or value, for example, in g, mg, μg, ng, pg, etc.
Then urine from the subject is tested. […] These values are within normal ranges so the data were processed.
Of the patients considered in this sample 70% were females and 30% were males.

Cc1nnc2n1-c1ccc(Cl)cc1C(c1ccccc1)=NC2 [alprazolam]
average urine drug concentration (Example 7, fifty randomly selected alprazolam patients, average daily dosage 2 mg): 155 ng/m L
average urine drug concentration (alprazolam model population, approximately 280,000 patient results, average daily dosage 3 mg): 375 ng/mL

COc1ccc2c3c1O[C@H]1C(=O)CC[C@H]4[C@@H](C2)N(C)CC[C@]314 [hydrocodone]
average urine drug concentration (hydrocodone model population, approximately 100,000 patient results, average daily dosage 30 mg): 1784 ng/m L

O=C1Nc2ccc(Cl)cc2C(c2ccccc2)=NC1O (stereo not drawn) [oxazepam]
average urine drug concentration (Example 8, fifty patients prescribed diazepam or temazepam (oxazepam as metabolite), average daily dosage 17 mg): 1096 ng/m L
average oxazepam urine drug concentration (oxazepam model population, approximately 207,000 patient results, prescribed diazepam and temazepam, average daily dosage 23 mg): 1819 ng/m L

COc1ccc2c3c1O[C@H]1C(=O)CC[C@@]4(O)[C@@H](C2)N(C)CC[C@]314 [oxycodone]
average urine drug concentration (oxycodone model population, approximately 47,000 patient results, average daily dosage 36 mg): 2120 ng/m L
